Data from PubChem BioAssay AID2060508 (Molecular Pharmacology Branch, DTP, NCI, 2025).

Test system: 454973-116-R2-J3-PDC spheroids, viability, % test/control
Assay: Anticancer human tumor 454973-116-R2-J3-PDC patient-derived pancreatic carcinoma cell line growth inhibition [GQUAD]
Settings: spheroids with HUVEC and MSC; for IC50: curve of first compound; for viability, T/C: stronger effect = lower value
How it was run: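 Multi-cell-type spheroids of tumor cells with HUVEC and mesenchymal stem cells, treated with drug combinations. Concentrations descend in half-log steps from near clinical Cmax, or from 10 microM where Cmax is unknown; viability read-out.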

[1] = second compound 0.0316 µM, first compound 0.0316 µM
[2] = second compound 0.0316 µM, first compound 0.1 µM
[3] = second compound 0.0316 µM, first compound 0.316 µM
[4] = second compound 0.0316 µM, first compound 1 µM
[5] = second compound 0.0316 µM, first compound 3.16 µM
[6] = second compound 0.0316 µM, first compound 10 µM
[7] = second compound 0.1 µM, first compound 0.0316 µM
[8] = second compound 0.1 µM, first compound 0.1 µM
[9] = second compound 0.1 µM, first compound 0.316 µM
[10] = second compound 0.1 µM, first compound 1 µM
[11] = second compound 0.1 µM, first compound 3.16 µM
[12] = second compound 0.1 µM, first compound 10 µM
[13] = second compound 0.316 µM, first compound 0.0316 µM
[14] = second compound 0.316 µM, first compound 0.1 µM
[15] = second compound 0.316 µM, first compound 0.316 µM
[16] = second compound 0.316 µM, first compound 1 µM
[17] = second compound 0.316 µM, first compound 3.16 µM
[18] = second compound 0.316 µM, first compound 10 µM
[19] = second compound 1 µM, first compound 0.0316 µM
[20] = second compound 1 µM, first compound 0.1 µM
[21] = second compound 1 µM, first compound 0.316 µM
[22] = second compound 1 µM, first compound 1 µM
[23] = second compound 1 µM, first compound 3.16 µM
[24] = second compound 1 µM, first compound 10 µM
[25] = second compound 3.16 µM, first compound 0.0316 µM
[26] = second compound 3.16 µM, first compound 0.1 µM
[27] = second compound 3.16 µM, first compound 0.316 µM
[28] = second compound 3.16 µM, first compound 1 µM
[29] = second compound 3.16 µM, first compound 3.16 µM
[30] = second compound 3.16 µM, first compound 10 µM
[31] = second compound 10 µM, first compound 0.0316 µM
[32] = second compound 10 µM, first compound 0.1 µM
[33] = second compound 10 µM, first compound 0.316 µM
[34] = second compound 10 µM, first compound 1 µM
[35] = second compound 10 µM, first compound 3.16 µM
[36] = second compound 10 µM, first compound 10 µM
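Further: spheroids exposed to compounds for seven days.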
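Wherever viability, T/C is given: 100% = DMSO vehicle control viability.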

O=c1[nH]cc(F)c(=O)[nH]1 + CN(C)c1ccc(Nc2c3ccc(NC(=O)CCN4CCCC4)cc3nc3cc(NC(=O)CCN4CCCC4)ccc23)cc1
IC50 (second compound 0.0316 µM): 2.12 µM | IC50 (second compound 0.1 µM): 2.06 µM | IC50 (second compound 0.316 µM): 2.25 µM | IC50 (second compound 1 µM): 1.46 µM | IC50 (second compound 3.16 µM): 1.58 µM | IC50 (second compound 10 µM): 1.92 µM | viability, T/C [1]: 114% | viability, T/C [2]: 98.1% | viability, T/C [3]: 108% | viability, T/C [4]: 84.2% | viability, T/C [5]: 32.1% | viability, T/C [6]: 30.2% | viability, T/C [7]: 106% | viability, T/C [8]: 95.6% | viability, T/C [9]: 103% | viability, T/C [10]: 83.4% | viability, T/C [11]: 28.5% | viability, T/C [12]: 31.7% | viability, T/C [13]: 102% | viability, T/C [14]: 103% | viability, T/C [15]: 96.8% | viability, T/C [16]: 81.1% | viability, T/C [17]: 35.1% | viability, T/C [18]: 38.6% | viability, T/C [19]: 92.5% | viability, T/C [20]: 99% | viability, T/C [21]: 89.2% | viability, T/C [22]: 56.9% | viability, T/C [23]: 35.7% | viability, T/C [24]: 35.1% | viability, T/C [25]: 89.5% | viability, T/C [26]: 71.5% | viability, T/C [27]: 95.7% | viability, T/C [28]: 59.9% | viability, T/C [29]: 32.2% | viability, T/C [30]: 37.6% | viability, T/C [31]: 78.9% | viability, T/C [32]: 74.2% | viability, T/C [33]: 78% | viability, T/C [34]: 64.8% | viability, T/C [35]: 38.7% | viability, T/C [36]: 36%

Nc1ccn(C2OC(CO)C(O)C2(F)F)c(=O)n1 (centres undefined) + Cc1[nH]c2ccc(F)cc2c1-c1nc2c3cccnc3c3ncccc3c2[nH]1
IC50 (second compound 0.0316 µM): < 0.0316 µM | IC50 (second compound 0.1 µM): < 0.0316 µM | IC50 (second compound 0.316 µM): < 0.0316 µM | IC50 (second compound 1 µM): < 0.0316 µM | IC50 (second compound 3.16 µM): < 0.0316 µM | IC50 (second compound 10 µM): < 0.0316 µM | viability, T/C [1]: 20.1% | viability, T/C [2]: 13.8% | viability, T/C [3]: 17.1% | viability, T/C [4]: 17.2% | viability, T/C [5]: 17.2% | viability, T/C [6]: 15.5% | viability, T/C [7]: 19.7% | viability, T/C [8]: 13.9% | viability, T/C [9]: 15.5% | viability, T/C [10]: 13.7% | viability, T/C [11]: 17.3% | viability, T/C [12]: 14.8% | viability, T/C [13]: 15.3% | viability, T/C [14]: 15.8% | viability, T/C [15]: 17.7% | viability, T/C [16]: 14.5% | viability, T/C [17]: 16.9% | viability, T/C [18]: 15.8% | viability, T/C [19]: 19% | viability, T/C [20]: 19.2% | viability, T/C [21]: 16% | viability, T/C [22]: 20.1% | viability, T/C [23]: 14.2% | viability, T/C [24]: 17.2% | viability, T/C [25]: 16.1% | viability, T/C [26]: 15.6% | viability, T/C [27]: 17.8% | viability, T/C [28]: 17.4% | viability, T/C [29]: 19.1% | viability, T/C [30]: 16.4% | viability, T/C [31]: 17.5% | viability, T/C [32]: 17.6% | viability, T/C [33]: 17% | viability, T/C [34]: 17% | viability, T/C [35]: 13.8% | viability, T/C [36]: 16.6%
